Data as given in ChEMBL document CHEMBL4680145, “Expansion of chemical space based on a pyrrolo[1,2-a]pyrazine core: Synthesis and its anticancer activity in prostate cancer and breast cancer cells” (Eur J Med Chem, 2020).
pIC50: −log10 of the molar value. Activity calls are given as the source filed them. The rule behind the calls is not given here.

Columns and labels:
[1] = test system: PC-3; assay: Cytotoxicity against human PC-3 cells assessed as cell viability at 30 uM incubated for 48 hrs by MTS assay relative to control; assay type: functional; conditions: read-out: Activity
[2] = test system: MCF7; assay: Cytotoxicity against human MCF7 cells assessed as cell viability at 30 uM incubated for 48 hrs by MTS assay relative to control; assay type: functional; conditions: read-out: Activity
[3] = test system: PC-3; assay: Antimigratory activity against human PC-3 cells assessed as reduction in cell migration measured every 2 hrs for 24 hrs by wound healing assay; assay type: functional, cell-based; conditions: dose 1-10 µM
[4] = test system: MCF7; assay: Induction of apoptosis in human MCF7 cells assessed as increase in cleaved PARP incubated for 24 hrs by Western blot analysis; assay type: functional, cell-based
[5] = test system: MCF7; assay: Induction of apoptosis in human MCF7 cells assessed as increase in caspase-3 activity at 10 uM incubated for 24 hrs by Hoechst 33342 staining based fluorescence microscopy; assay type: functional, cell-based
[6] = test system: MCF7; assay: Induction of apoptosis in human MCF7 cells assessed as increase in caspase-3 activity at 10 uM incubated for 24 hrs in presence of Ac-DEVD-CHO by Hoechst 33342 dye based fluorescence assay; assay type: functional, cell-based
[7] = test system: PC-3; assay: Induction of apoptosis in human PC-3 cells assessed as increase in caspase-3 activity at 10 uM incubated for 24 hrs by Hoechst 33342 staining based fluorescence microscopy; assay type: functional, cell-based
[8] = test system: MCF7; assay: Cytotoxicity against human MCF7 cells assessed as reduction cell viability incubated for 48 hrs by MTS assay; assay type: functional, cell-based; conditions: MCF7, 48 h
[9] = test system: PC-3; assay: Induction of apoptosis in human PC-3 cells assessed as increase in caspase-3 activity at 10 uM incubated for 24 hrs in presence of Ac-DEVD-CHO by Hoechst 33342 dye based fluorescence assay; assay type: functional, cell-based
[10] = test system: PC-3; assay: Induction of apoptosis in human PC-3 cells assessed as increase in cleaved PARP incubated for 24 hrs by Western blot analysis; assay type: functional, cell-based; conditions: dose 3-30 µM
[11] = test system: MCF7; assay: Induction of apoptosis in human MCF7 cells assessed as increase in caspase-3 activity incubated for 24 hrs by caspase-3 substrate and Hoechst 33342 dye based fluorescence assay; assay type: functional, cell-based; conditions: dose 1-10 µM
[12] = test system: PC-3; assay: Cytotoxicity against human PC-3 cells assessed as reduction in cell viability incubated for 48 hrs by MTS assay; assay type: functional, cell-based; conditions: PC-3, 48 h
[13] = test system: PC-3; assay: Induction of apoptosis in human PC-3 cells assessed as increase in caspase-3 activity incubated for 24 hrs by caspase-3 substrate and Hoechst 33342 dye based fluorescence assay; assay type: functional, cell-based; conditions: dose 1-10 µM
[14] = test system: MCF7; assay: Antimigratory activity against human MCF7 cells assessed as reduction in cell migration measured every 2 hrs for 24 hrs by wound healing assay; assay type: functional, cell-based; conditions: dose 1-10 µM

Compound	viability at 30 µM [1] [%]	viability at 30 µM [2] [%]	further results
O=C(C[N+]1=Cc2cccn2[C@H](C(=O)c2ccc(Br)cc2)[C@H]1c1ccccc1)c1ccc(F)cc1 (relative stereo)	10.7	33.8	
O=C(c1ccc(Br)cc1)[C@@H]1[C@@H](c2ccccc2)[N+](Cc2ccccc2)=Cc2cccn21 (relative stereo)	97.9	98.1	
O=C(c1ccccc1)[C@@H]1[C@@H](c2ccc(Br)cc2)N=Cc2cccn21 (relative stereo)	83.3	99.9	
COc1ccccc1[C@H]1N=Cc2cccn2[C@@H]1C(=O)c1ccc(F)cc1 (relative stereo)	86.4	69.3	
COc1ccc([C@H]2N=Cc3cccn3[C@@H]2C(=O)c2ccc(F)cc2)cc1OC (relative stereo)	96.7	72.8	
COc1ccc(C(=O)[C@@H]2[C@@H](c3ccc(Br)cc3)N=Cc3cccn32)cc1 (relative stereo)	96.4	100	
COc1cc(OC)cc([C@H]2N=Cc3cccn3[C@@H]2C(=O)c2ccccc2)c1 (relative stereo)	106	102	
O=C(c1ccc(F)cc1)[C@@H]1[C@@H](c2ccco2)N=Cc2cccn21 (relative stereo)	99.4	70	
COc1cccc(C(=O)[C@@H]2[C@@H](c3ccc(Cl)cc3)N=Cc3cccn32)c1 (relative stereo)	99.6	118	
O=C(c1ccc(Cl)cc1)[C@@H]1[C@@H](c2ccc[nH]2)N=Cc2cccn21 (relative stereo)	102	102	
Cc1ccc([C@H]2N=Cc3cccn3[C@@H]2C(=O)c2ccc(Cl)cc2)cc1 (relative stereo)	104	100	
O=C(C[N+]1=Cc2cccn2[C@H](C(=O)c2ccc(Br)cc2)[C@H]1c1ccccc1)c1ccccc1 (relative stereo)	9.1	25.5	inhibition [3]: Dose-dependent effect; Activity [4]: Dose-dependent effect; Activity [5]: Active; Activity [6]: inactive; Activity [7]: Active; pIC50 [8]: 5.44; Activity [9]: inactive; Activity [10]: Dose-dependent effect; Activity [11]: Dose-dependent effect; pIC50 [12]: 5.46; Activity [13]: Dose-dependent effect; inhibition [14]: Dose-dependent effect
COc1ccc([C@H]2N=Cc3cccn3[C@@H]2C(=O)c2ccc(Br)cc2)cc1 (relative stereo)	28.6	39.8	pIC50 [12]: 4.69
O=C(c1ccccc1)[C@@H]1[C@@H](c2ccc(Cl)cc2)N=Cc2cccn21 (relative stereo)	84.8	102	
C[N+]1=Cc2cccn2[C@H](C(=O)c2ccc(Br)cc2)[C@H]1c1ccccc1 (relative stereo)	97.9	98.1	
COc1ccc(C(=O)[C@@H]2[C@@H](c3ccco3)N=Cc3cccn32)cc1 (relative stereo)	55.7	99.9	
COc1ccc(C(=O)C[N+]2=Cc3cccn3[C@H](C(=O)c3ccc(Br)cc3)[C@H]2c2ccccc2)cc1 (relative stereo)	56	54.5	
COc1ccccc1[C@H]1N=Cc2cccn2[C@@H]1C(=O)c1ccc(Cl)cc1 (relative stereo)	99.5	96.5	
O=C(c1ccccc1)[C@@H]1[C@@H](c2cc3ccccc3[nH]2)N=Cc2cccn21 (relative stereo)	92.1	106	
COc1ccc([C@@H]2[C@@H](C(=O)c3ccc(Br)cc3)n3cccc3C=[N+]2CC(=O)c2ccccc2)cc1 (relative stereo)	6.3	6.4	inhibition [3]: Dose-dependent effect; pIC50 [8]: 5.61; pIC50 [12]: 5.66; inhibition [14]: Dose-dependent effect
O=C(C[N+]1=Cc2cccn2[C@H](C(=O)c2ccc(Br)cc2)[C@H]1c1ccccc1)c1ccc(Cl)cc1 (relative stereo)	80.8	82.5	
O=C(c1ccc(Br)cc1)[C@@H]1[C@@H](c2ccccc2)N=Cc2cccn21 (relative stereo)	68.5	66.9	

Compound	viability at 30 µM [1] [%]	viability at 30 µM [2] [%]	further results
O=C(c1ccc(F)cc1)[C@@H]1[C@@H](c2ccc(Br)cc2)N=Cc2cccn21 (relative stereo)	18.5	31.1	pIC50 [12]: 4.79
COc1cccc(C(=O)[C@@H]2[C@@H](c3ccncc3)N=Cc3cccn32)c1 (relative stereo)	91.4	95.5	
O=C(c1ccccc1)[C@@H]1[C@@H](c2ccccc2)N=Cc2cccn21 (relative stereo)	106	104	
Cc1ccc([C@H]2N=Cc3cccn3[C@@H]2C(=O)c2ccccc2)cc1 (relative stereo)	108	108	
Cc1ccc([C@H]2N=Cc3cccn3[C@@H]2C(=O)c2ccc(F)cc2)cc1 (relative stereo)	99.8	111	
COc1ccccc1[C@H]1N=Cc2cccn2[C@@H]1C(=O)c1ccccc1 (relative stereo)	95.5	107	
O=C(c1ccccc1)[C@@H]1[C@@H](c2ccco2)N=Cc2cccn21 (relative stereo)	59	95.3	
COc1ccc(C(=O)[C@@H]2[C@@H](c3ccc(OC)c(OC)c3)N=Cc3cccn32)cc1 (relative stereo)	102	98	
O=C(c1ccc(Br)cc1)c1c(-c2ccccc2)ncc2cccn12	5.8	37	pIC50 [12]: 5.14
COc1cccc(C(=O)[C@@H]2[C@@H](c3ccccc3)N=Cc3cccn32)c1 (relative stereo)	104	104	
O=C(c1ccc(Br)cc1)[C@@H]1[C@@H](c2ccccn2)N=Cc2cccn21 (relative stereo)	73.2	67.5	
COc1ccc(C(=O)[C@@H]2[C@@H](c3ccc(C)cc3)N=Cc3cccn32)cc1 (relative stereo)	81.3	77.4	
Cc1ccc([C@H]2N=Cc3cccn3[C@@H]2C(=O)c2ccc(Br)cc2)cc1 (relative stereo)	99	99.9	
COc1ccc([C@H]2N=Cc3cccn3[C@@H]2C(=O)c2cccc(OC)c2)cc1 (relative stereo)	83.8	77.9	
O=C(c1ccccc1)[C@@H]1[C@@H](c2ccc([N+](=O)[O-])cc2)N=Cc2cccn21 (relative stereo)	86.9	85.1	
CCOC(=O)C[N+]1=Cc2cccn2[C@H](C(=O)c2ccc(Br)cc2)[C@H]1c1ccccc1 (relative stereo)	10.7	24	pIC50 [12]: 5.06
O=C(C[N+]1=Cc2cccn2[C@H](C(=O)c2ccc(F)cc2)[C@H]1c1ccc(Br)cc1)c1ccccc1 (relative stereo)	3.4	3.6	inhibition [3]: Dose-dependent effect; Activity [4]: Dose-dependent effect; Activity [5]: Active; Activity [6]: inactive; Activity [7]: Active; pIC50 [8]: 5.71; Activity [9]: inactive; Activity [10]: Dose-dependent effect; Activity [11]: Dose-dependent effect; pIC50 [12]: 5.93; Activity [13]: Dose-dependent effect; inhibition [14]: Dose-dependent effect
O=C(c1ccc(Cl)cc1)[C@@H]1[C@@H](c2ccccc2)N=Cc2cccn21 (relative stereo)	99.9	99.3	
O=C(c1ccc(F)cc1)[C@@H]1[C@@H](c2ccccc2)N=Cc2cccn21 (relative stereo)	76	70.3	
O=C(c1ccc(Br)cc1)[C@@H]1[C@@H](c2ccco2)N=Cc2cccn21 (relative stereo)	99.2	96.5	
O=C(c1ccc(F)cc1)[C@@H]1[C@@H](c2ccncc2)N=Cc2cccn21 (relative stereo)	100	78.5	
